Results taken from patent EP0321208A1, “Improvements in or relating to avian control” (priority 1987, dated 1989).

Assays:
quail chymotrypsin = assay: ATEE assay: inhibition of quail intestinal chymotrypsin activity; type: biochemical, Japanese quail; conditions: compound 1 x 10⁻⁵M; ATEE substrate; percentage inhibition of control activity ± standard deviation (n = 3); 5 min, 10 µM
Experimental: The substrate was prepared by dissolving ATEE (10 mg) in Tris-HCl buffer of pH 7.5 containing 30% (v/v) of methanol (25 ml). The quail intestine protease activity was partially purified as described above prior to testing for chymotrypsin activity. The reaction was carried out in a quartz cuvette (1 x 0.25 x 1 cm³) containing substrate (1 ml) and 100 mM Tris-HCl buffer (200 µl). The reaction was started by the addition of the partially purified intestine protease (200 µl) and followed bv the decrease in absorbance at 237 nm over a 5 minute period. All determinations were carried out in triplicate against a reagent blank.

feral pigeons [1] = assay: Three day no-choice feeding test with feral pigeons; type: in vivo; conditions: 0.5% w/w compound/pellet, ± standard deviation; for Mean weight difference: after the test compared with before; for Mean consumption: treated food
Experimental: (§1) Feral pigeons were transferred from a communal outdoor aviary to individual cages and maintained on a 10 hour light - 14 hour dark cycle. Birds were gradually weaned away from their normal diet of maize, wheat and maple peas to a standard laboratory diet of turkey starter pellets.
(§2) The pellets were oven dried and then left to absorb atmospheric moisture. The control food was sprayed with the same volume of acetone/water mixture.
(§3) A group of 35 feral pigeons was caged individually for the trials which used eight compounds of formula (I) together with sucrose octaacetate and dimethyl anthranilate, both of which are substances which are known to be avian repellents. Each bird was subjected to treatment with each compound in a random order subject to the limitation of a latin square design. Each treatment was presented to the birds in no-choice and two-choice conditions. The no-choice phase lasted 3 days, during which a bird was presented with a single bowl containing 120 g of treated food. Each bird was weighed before and after the no-choice phase, as was the amount of food remaining. There immediately followed a two-choice phase in which the birds could choose between food treated with a given chemical and a bowl containing otherwise identical pellets without the chemical (the control treatment utilising two bowls of acetone/water treated pellets, one of which was arbitrarily selected as the control). The two-choice phase lasted four days during which food consumption was monitored daily. The position of the food bowls was alternated each day in order to overcome the confusing of food preference with position preference and ample water and grit were supplied throughout the trial.

bullfinch trypsin = assay: BAEE assay: inhibition of bullfinch intestinal trypsin activity; type: biochemical; conditions: compound 1 x 10⁻⁵M; BAEE substrate; percentage inhibition of control activity ± standard deviation (n = 3); 7 min, 10 µM
Experimental: (§4) Dried avian intestine powder (500 mg) was extracted for 30 minutes in 1 mM HC₁ (5 ml). The extract was centrifuged at 22,000 x g for 30 minutes at 4°C. The resultant supernatant was applied to a column of Sephadex G-50, medium grade (360 mm x 15 mm) and eluted with 0.5 mM HCl at 0.7 ml/min. Fractions (3.5 ml) were collected and tested for the presence of protein by determining their absorbance at 280 nm. The proteinaceous fractions were bulked and concentrated by passing them through an ultrafiltration unit (YM 30 filter). The concentrate was collected and kept at 4°C throughout its use.
The substrate was prepared bv dissolving BAEE (10 mg) in a mixture of 50 mM Tris-HCl buffer of pH 7.5 (24 ml) and 5% (w/v) calcium chloride solution (1 ml). The bullfinch intestine protease activity was partially purified as described above prior to testing for trypsin activity. The reaction was carried out in a quartz cuvette (1 x 0.25 x 1 cm³) containing substrate (1 ml) and 50 mM Tris-HCl buffer (200 µl). The reaction was started by the addition of the partially purified intestine protease 1200 µl) and followed by the decrease in absorbance at 253 nm over a 7 minute period. All determinations were carried out in triplicate against a reagent blank.
(§5) In both the chymotrypsin and the trypsin assays a control was however carried out using the 200 µl of buffer containing no added compound.

feral pigeons [2] = assay: Four day two-choice feeding test with feral pigeons; type: in vivo; conditions: for Mean consumption of treated food: four day two-choice, 0.5% w/w compound/pellet; for deterrent effect on food consumption: two-choice test, proportions of treated and untreated food consumed, statement in words
Experimental: as §1, §2, §3
The data obtained in the four day two-choice test is presented in Table 5 for mean consumption of treated food. […]

pigeon trypsin = assay: TAME assay: inhibition of pigeon intestinal trypsin activity; type: biochemical; conditions: compound 60 µg/ml; TAME substrate; percentage inhibition of control activity ± standard deviation (n = 3); 5 min
Experimental: as §4
The substrate was prepared by dissolving TAME (19 mg) in a mixture of 100 mM Tris-HCl buffer of pH 7.5 (50 ml) and 5% (w/v) calcium chloride solution (2 ml). The pigeon intestine protease was partially purified as described above prior to testing for trypsin activity. The reaction was carried out in a quartz cuvette (1 x 0.25 x 1 cm³) containing substrate (3 ml) and 100 mM Tris-HCl buffer pH 7.5 (100 µl). The reaction was started by the addition of the partially purified intestine protease (100 µl) and followed by the decrease in absorbance at 247 nm over a 5 minute period.
as §5

Japanese quail = assay: No choice feeding trial with Japanese quail; type: in vivo; conditions: 5,000 ppm additive in turkey starter crumbs, 14 days, ± standard deviation
Description: (A) Six week old female japanese quail were preconditoned by weighing them seven days before the start of the feeding trial. Five quail were placed in each of four cages and each cage was provided with a different diet, these being (a) a control diet of standard turkey starter crumbs (TSC), (b) TSC treated with 5,000 ppm cinnamamide, (c) TSC treated with 5,000 ppm 4-hydroxy-3,5-dimethoxycinnamic acid, and (d) TSC treated with 2,500 ppm cinnamamide + 2,500 ppm 4-hydroxy-3,5-dimethoxycinnamic acid. The treated TSC was prepared in each case by dissolving/-suspending the compound or compounds in diethyl ether (1500 ml) and mixing this with TSC (2000 g) at 0.25% or 0.5% w/w concentration compound/TSC in an industrial food mixer for 1 hour to evaporate off the diethyl ether and produce a homogeneous mixture. The control was prepared by mixing TSC (2000 g) with diethyl ether for 1 hour in an industrial food mixer. The amount of each diet consumed and the weight gain of the birds was recorded on a daily basis for a period of 14 days. The trial was carried out in duplicate.
The results of the trial are presented in Table 2, together with the standard deviation. It will be seen that diets (b) and (d) produced a decreased increase in body weight as compared with the control diet (a). It should be appreciated that increased consumption, which apparently occurs with diets (c) and (d), can be the result of a compensation against the occurrence of the enzyme inhibitory effect and a consequent reduction in value of the food consumed.

COc1cc(C=CC(=O)O)cc(OC)c1OC [3,4,5-Trimethoxycinnamic acid]
Inhibition of Activity Chymotrypsin (quail chymotrypsin): 88 ± 2 percentage
Mean weight difference (feral pigeons [1]): -1.5 ± 0.9 grams
Mean consumption (feral pigeons [1]): 53.0 ± 2.1 grams
Inhibition of Activity Trypsin (bullfinch trypsin): 36 ± 1 percentage
Mean consumption of treated food (feral pigeons [2]): 19.8 ± 2.7 grams
deterrent effect on food consumption (feral pigeons [2]): most marked
Inhibition of Activity (pigeon trypsin): 0 percentage

COc1ccc(C=CC(=O)O)cc1OC [3,4-Dimethoxycinnamic acid]
Inhibition of Activity Chymotrypsin (quail chymotrypsin): 83 ± 3 percentage
Mean weight difference (feral pigeons [1]): -1.1 ± 0.9 grams
Mean consumption (feral pigeons [1]): 55.3 ± 2.3 grams
Mean consumption of treated food (feral pigeons [2]): 27.1 ± 2.8 grams
Inhibition of Activity (pigeon trypsin): 16 ± 1 percentage

COc1cc(C=CC(=O)O)cc(OC)c1 [3,5-Dimethoxycinnamic acid]
Inhibition of Activity Chymotrypsin (quail chymotrypsin): 63 ± 1 percentage
Mean weight difference (feral pigeons [1]): -12.9 ± 1.2 grams
Mean consumption (feral pigeons [1]): 33.1 ± 1.5 grams
Mean consumption of treated food (feral pigeons [2]): 12.1 ± 1.7 grams
deterrent effect on food consumption (feral pigeons [2]): most marked
Inhibition of Activity (pigeon trypsin): 14 ± 1 percentage

O=C(C=Cc1ccc(O)c(O)c1)OC1CC(O)(C(=O)O)CC(O)C1O (centres unmarked) [3-(3',4'-Dihydroxycinnamoyl)-quinic acid]
Inhibition of Activity (pigeon trypsin): 3 ± 1 percentage

O=C(O)C=Cc1cccc(O)c1 [3-Hydroxycinnamic acid]
Inhibition of Activity Chymotrypsin (quail chymotrypsin): 43 ± 2 percentage

COc1cccc(C=CC(=O)O)c1 [3-Methoxycinnamic acid]
Inhibition of Activity Chymotrypsin (quail chymotrypsin): 56 ± 4 percentage

COc1cc(C(=O)O)cc(OC)c1O [4-Hydroxy-3,5-dimethoxy-benzoic acid, reference compound]
Inhibition of Activity Chymotrypsin (quail chymotrypsin): 2 ± 2 percentage

COc1cc(C=CC(=O)O)cc(OC)c1O [4-Hydroxy-3,5-dimethoxy-cinnamic acid, 4-Hydroxy-3,5-dimethoxycinnamic acid]
Average food eaten (Japanese quail): 21 ± 0.3 g/bird/day
Increase in body weight (Japanese quail): 0.89 ± 0.10 g/bird/day
Inhibition of Activity Chymotrypsin (quail chymotrypsin): 94 ± 2 percentage
Mean weight difference (feral pigeons [1]): 2.3 ± 0.9 grams
Mean consumption (feral pigeons [1]): 60.2 ± 3.3 grams
Inhibition of Activity Trypsin (bullfinch trypsin): 22 ± 2 percentage
Mean consumption of treated food (feral pigeons [2]): 29.2 ± 2.8 grams
Inhibition of Activity (pigeon trypsin): 16 ± 4 percentage

COc1cc(C=CC(=O)O)ccc1O [4-Hydroxy-3-methoxycinnamic acid]
Mean weight difference (feral pigeons [1]): -0.2 ± 1.1 grams
Mean consumption (feral pigeons [1]): 54.5 ± 2.9 grams
Mean consumption of treated food (feral pigeons [2]): 22.7 ± 2.4 grams
Inhibition of Activity (pigeon trypsin): 16 ± 4 percentage

O=C(O)C=Cc1ccc(O)cc1 [4-Hydroxycinnamic acid, 4-hydroxycinnamic acid]
Inhibition of Activity Chymotrypsin (quail chymotrypsin): 12 ± 1 percentage

O=C(O)c1ccccc1 [Benzoic acid, reference compound]
Inhibition of Activity Chymotrypsin (quail chymotrypsin): 14 ± 1 percentage

O=CC=Cc1ccccc1 [Cinnamaldehyde]
Inhibition of Activity Chymotrypsin (quail chymotrypsin): 57 ± 4 percentage

N#CC=Cc1ccccc1 [Cinnamonitrile]
Inhibition of Activity Chymotrypsin (quail chymotrypsin): 23 ± 1 percentage

OCC=Cc1ccccc1 [Cinnamyl alcohol]
Inhibition of Activity Chymotrypsin (quail chymotrypsin): 20 ± 6 percentage

CNc1ccccc1C(=O)OC [Dimethylanthranilate, Dimethyl anthranilate, reference compound]
Mean weight difference (feral pigeons [1]): -4.8 ± 2.0 grams
Mean consumption (feral pigeons [1]): 45.9 ± 2.9 grams
Mean consumption of treated food (feral pigeons [2]): 18.2 ± 2.4 grams
Inhibition of Activity (pigeon trypsin): 9 ± 2 percentage

O=C(O)CCc1ccccc1 [Hydrocinnamic acid]
Inhibition of Activity Chymotrypsin (quail chymotrypsin): 19 ± 3 percentage

O=C(O)Cc1ccccc1 [Phenylacetic acid, reference compound]
Inhibition of Activity Chymotrypsin (quail chymotrypsin): 13 ± 2 percentage

CC(=O)OC[C@H]1O[C@@](COC(C)=O)(O[C@H]2O[C@H](COC(C)=O)[C@@H](OC(C)=O)[C@H](OC(C)=O)[C@H]2OC(C)=O)[C@@H](OC(C)=O)[C@@H]1OC(C)=O [Sucrose octaacetate, reference compound]
Mean weight difference (feral pigeons [1]): 2.3 ± 0.9 grams
Mean consumption (feral pigeons [1]): 54.0 ± 2.6 grams
Mean consumption of treated food (feral pigeons [2]): 28.6 ± 2.4 grams

CC(C=O)=Cc1ccccc1 [α-Methylcinnamaldehyde]
Inhibition of Activity Chymotrypsin (quail chymotrypsin): 17 ± 5 percentage

CC(=Cc1ccccc1)C(=O)O [α-Methylcinnamic acid]
Inhibition of Activity Chymotrypsin (quail chymotrypsin): 36 ± 3 percentage
